Results: patent US9409952B2, “Peptide-compound cyclization method” (Chugai Seiyaku Kabushiki Kaisha, priority 2011, dated 2016)
Where two headings read alike, the source gives them in different places. Starred links: 1 amine or outer side, 2 acyl side, 3 side chain; linkers in the order of their positions; H or OH if unused. Positions of bridges follow the written chain, without caps; N, C: chain ends. Non-standard residues stand in square brackets, D forms with d. Residues, ends and D or L forms follow the SMILES beside them. *: point of attachment. NEtPhe = CCN[C@@H](Cc1ccccc1)C(=O)O; NMeF = CN[C@@H](Cc1ccccc1)C(=O)O; NMeGABA = CN(CCCC(=O)[*:2])[*:1]; NMeI = CC[C@H](C)[C@H](NC)C(=O)O; NMeβAla = CN(CCC(=O)[*:2])[*:1]; NMeL = CN[C@@H](CC(C)C)C(=O)O; Phg = N[C@H](C(=O)O)c1ccccc1; NMeV = CN[C@H](C(=O)O)C(C)C; NMeA = CN[C@@H](C)C(=O)O; Piperidide = C1CCN(*)CC1; dNMeA = CN[C@H](C)C(=O)O; Aib = CC(C)(N)C(=O)O; NPrGly = CCCNCC(=O)O; Sar = CNCC(=O)O; tBu = CC(C)(C)*

Experiments:
[1] = PAMPA (parallel artificial membrane permeability assay); type: in vitro ADME; details: PAMPA
Outline: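 Artificial membrane was 10% (w/v) egg lecithin plus 0.5% (w/v) cholesterol in dodecane on a PVDF filter. A 10 mM DMSO stock was added at 0.5% (v/v) to donor buffer (50 mM MOPSO, pH 6.5, 5.0% glycocholic acid). After 18 h at 37 °C, LC/MS or LC/UV gave donor and acceptor levels for Pe.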

[2] = Metabolic stability in human hepatic microsome; type: in vitro ADME; details: microsomes
[3] = membrane permeation rate (Pe), 50 mM MOPSO buffer pH 6.5 with 5.0% glycocholic acid, 37° C., 18 hours, read-out: iPAMPA Pe
[4] = pH 7.4, human hepatic microsome, NADPH(+), read-out: CL NADPH(+)

Compound	Papp at 18 hours, 50 µM [1, 3] [×10⁻⁶ cm/s]	microsomal CLint at 1 uM [2, 4] [µL/min/mg]	Papp at 18 hours, 50 µM ([1]; pH 6.5) [×10⁻⁶ cm/s]	microsomal CLint at 1 uM ([2]; human, pH 7.4, CL NADPH(+)) [µL/min/mg]
CC(C)C[C@H]1C(=O)N[C@H](C(=O)N2CCCCC2)CC(=O)N(C)[C@H](C)C(=O)N(C)[C@@H](Cc2ccccc2)C(=O)N(C)[C@@H](CC(C)C)C(=O)N[C@@H]([C@@H](C)O)C(=O)N(C)CC(=O)N[C@@H](COC(C)(C)C)C(=O)N1C [DP-527] ([dNMeA][NMeF][NMeL]T[Sar]S(tBu)[NMeL]D-Piperidide; lactam N-8)	11	30		
CC(C)C[C@H]1C(=O)N[C@@H](COC(C)(C)C)C(=O)N[C@H](C(=O)N2CCCCC2)CC(=O)N[C@H](C)C(=O)N(C)[C@@H](Cc2ccccc2)C(=O)N(C)[C@@H](CC(C)C)C(=O)N[C@@H]([C@@H](C)O)C(=O)N(C)CC(=O)N1C [DP-528] ([dA][NMeF][NMeL]T[Sar][NMeL]S(tBu)D-Piperidide; lactam N-8)	13	55		
CC(C)C[C@H]1C(=O)N[C@@H](COC(C)(C)C)C(=O)N[C@H](C(=O)N2CCCCC2)CC(=O)N[C@H](C)C(=O)N(C)[C@@H](Cc2ccccc2)C(=O)N(C)[C@@H](CC(C)C)C(=O)N[C@@H]([C@@H](C)O)C(=O)N(C)[C@@H](C)C(=O)N1C [DP-529] ([dA][NMeF][NMeL]T[NMeA][NMeL]S(tBu)D-Piperidide; lactam N-8)	23	100		
CC(C)C[C@@H]1NC(=O)[C@H](Cc2ccccc2)N(C)C(=O)[C@H]([C@@H](C)O)NC(=O)[C@H](Cc2ccccc2)N(C)C(=O)[C@H](C)N(C)C(=O)[C@H](C)NC(=O)C[C@@H](C(=O)N2CCCCC2)NC(=O)[C@@H]2CCCN2C1=O [DP-530] (A[NMeA][NMeF]T[NMeF]LPD-Piperidide; lactam N-8)			11	37
CC(C)C[C@H]1C(=O)N[C@H](C(=O)N2CCCCC2)CC(=O)N(C)CC(=O)N[C@@H]([C@@H](C)O)C(=O)N(C)[C@@H](C)C(=O)N[C@@H](COC(C)(C)C)C(=O)N(C)[C@@H](Cc2ccccc2)C(=O)N1C [DP-531] ([Sar]T[NMeA]S(tBu)[NMeF][NMeL]D-Piperidide; lactam N-7)	5.8	42		
CC(C)C[C@H]1C(=O)N[C@H](C(=O)N2CCCCC2)CC(=O)N(C)CCC(=O)N[C@@H]([C@@H](C)O)C(=O)N(C)[C@@H](C)C(=O)N[C@@H](COC(C)(C)C)C(=O)N(C)[C@@H](Cc2ccccc2)C(=O)N1C [DP-532] ([NMeβAla]T[NMeA]S(tBu)[NMeF][NMeL]D-Piperidide; lactam N-7)	20	105		
CC(C)C[C@H]1C(=O)N[C@H](C(=O)N2CCCCC2)CC(=O)N(C)[C@@H](C)C(=O)N(C)[C@@H](Cc2ccccc2)C(=O)N(C)[C@@H](CC(C)C)C(=O)N[C@@H]([C@@H](C)O)C(=O)N(C)CC(=O)N1C [DP-533] ([NMeA][NMeF][NMeL]T[Sar][NMeL]D-Piperidide; lactam N-7)	10	86		
CC(C)C[C@H]1C(=O)N(C)CC(=O)N(C)[C@@H](Cc2ccccc2)C(=O)N[C@@H](COC(C)(C)C)C(=O)N[C@H](C(=O)N2CCCCC2)CC(=O)N(C)CCCC(=O)N[C@@H]([C@@H](C)O)C(=O)N1C [DP-534] ([NMeGABA]T[NMeL][Sar][NMeF]S(tBu)D-Piperidide; lactam N-7)	6.3	55		
CC(C)C[C@H]1C(=O)N[C@H](C(=O)N2CCCCC2)CC(=O)N(C)CCCC(=O)N(C)[C@@H](Cc2ccccc2)C(=O)N[C@@H]([C@@H](C)O)C(=O)N(C)CC(=O)N[C@@H](COC(C)(C)C)C(=O)N1C [DP-535] ([NMeGABA][NMeF]T[Sar]S(tBu)[NMeL]D-Piperidide; lactam N-7)	21	129		
CC(C)C[C@H]1C(=O)N[C@H](C(=O)N2CCCCC2)CC(=O)N(C)[C@H](C)C(=O)N(C)[C@@H](CC(C)C)C(=O)N[C@@H]([C@@H](C)O)C(=O)N(C)CC(=O)N[C@@H](COC(C)(C)C)C(=O)N1C [DP-536] ([dNMeA][NMeL]T[Sar]S(tBu)[NMeL]D-Piperidide; lactam N-7)	9.9	113		
CC(C)C[C@H]1C(=O)N[C@H](C(=O)N2CCCCC2)CC(=O)N[C@H](C)C(=O)N(C)[C@@H](Cc2ccccc2)C(=O)N(C)[C@@H](CC(C)C)C(=O)N[C@@H]([C@@H](C)O)C(=O)N(C)CC(=O)N1C [DP-537] ([dA][NMeF][NMeL]T[Sar][NMeL]D-Piperidide; lactam N-7)	10	78		
CC(C)C[C@H]1C(=O)N[C@@H]([C@@H](C)O)C(=O)N(C)[C@@H](C)C(=O)N[C@H](C(=O)N2CCCCC2)CC(=O)N[C@H](C)C(=O)N(C)[C@@H](C)C(=O)N(C)[C@@H](Cc2ccccc2)C(=O)N1C [DP-538] ([dA][NMeA][NMeF][NMeL]T[NMeA]D-Piperidide; lactam N-7)	5.5	37		
CC(C)C[C@@H]1NC(=O)[C@H](Cc2ccccc2)N(C)C(=O)[C@H]([C@@H](C)O)NC(=O)[C@H](Cc2ccccc2)N(C)C(=O)[C@H](C)N(C)C(=O)[C@H](C)NC(=O)C[C@@H](C(=O)N2CCCCC2)NC1=O [DP-539] (A[NMeA][NMeF]T[NMeF]LD-Piperidide; lactam N-7)	20	260		
CCCN1CC(=O)N(C)[C@@H](Cc2ccccc2)C(=O)N(C)[C@@H](Cc2ccccc2)C(=O)N(C)[C@@H](CC(C)C)C(=O)N2CCC[C@H]2C(=O)N(C)[C@@H](CC(C)C)C(=O)N[C@@H](C)C(=O)N(C)[C@@H](C(C)C)C(=O)N[C@H](C(=O)N2CCCCC2)CC(=O)N(C)[C@@H](C)C(=O)N[C@@H]([C@@H](C)O)C1=O [DP-541] ([NMeA]T[NPrGly][NMeF][NMeF][NMeL]P[NMeL]A[NMeV]D-Piperidide; lactam N-11)			23	22
CCN1C(=O)CN(C)C(=O)[C@H]([C@@H](C)O)NC(=O)[C@H](C)N(C)C(=O)C[C@@H](C(=O)N2CCCCC2)NC(=O)[C@H](C(C)C)N(C)C(=O)[C@H](C)NC(=O)[C@H](CC(C)C)N(C)C(=O)[C@@H]2CCCN2C(=O)[C@H](CC(C)C)N(C)C(=O)[C@H](Cc2ccccc2)N(C)C(=O)[C@@H]1Cc1ccccc1 [DP-542] ([NMeA]T[Sar][NEtPhe][NMeF][NMeL]P[NMeL]A[NMeV]D-Piperidide; lactam N-11)			22	21
CCCN1CC(=O)N(C)[C@@H](CC(C)C)C(=O)N[C@@H]([C@@H](C)O)C(=O)N(C)[C@@H](Cc2ccccc2)C(=O)N(C)[C@@H](CC(C)C)C(=O)N(C)[C@@H]([C@@H](C)CC)C(=O)N(C)[C@@H](C)C(=O)N[C@H](C(=O)N2CCCCC2)CC(=O)N(C)CC(=O)N[C@@H](COC(C)(C)C)C1=O [DP-543] ([Sar]S(tBu)[NPrGly][NMeL]T[NMeF][NMeL][NMeI][NMeA]D-Piperidide; lactam N-10)	28	23		
CCCN1CC(=O)N[C@@H](CC(C)C)C(=O)N[C@@H]([C@@H](C)O)C(=O)N(C)CC(=O)N(C)[C@@H](Cc2ccccc2)C(=O)N[C@@H](C)C(=O)N(C)[C@@H](Cc2ccccc2)C(=O)N(C)[C@@H](CC(C)C)C(=O)N(C)[C@@H]([C@@H](C)CC)C(=O)N(C)[C@@H](CC(C)C)C(=O)N[C@H](C(=O)N2CCCCC2)CC1=O [DP-544] ([NPrGly]LT[Sar][NMeF]A[NMeF][NMeL][NMeI][NMeL]D-Piperidide; lactam N-11)	42	45		
CCCN1CC(=O)N(C)[C@@H](Cc2ccccc2)C(=O)N[C@@H](C)C(=O)N(C)[C@@H](Cc2ccccc2)C(=O)N(C)[C@@H](CC(C)C)C(=O)N(C)[C@@H]([C@@H](C)CC)C(=O)N(C)[C@@H](CC(C)C)C(=O)N[C@H](C(=O)N2CCCCC2)CC(=O)N(C)CC(=O)N[C@@H](CC(C)C)C(=O)N[C@@H]([C@@H](C)O)C1=O [DP-545] ([Sar]LT[NPrGly][NMeF]A[NMeF][NMeL][NMeI][NMeL]D-Piperidide; lactam N-11)	40	36		
CC[C@H](C)[C@H]1C(=O)N(C)[C@@H](CC(C)C)C(=O)N[C@H](C(=O)N2CCCCC2)CC(=O)N(C)CC(=O)N[C@@H](CC(C)C)C(=O)N[C@@H]([C@@H](C)O)C(=O)N(C)CC(=O)N(CC)[C@@H](Cc2ccccc2)C(=O)N[C@@H](C)C(=O)N(C)[C@@H](Cc2ccccc2)C(=O)N(C)[C@@H](CC(C)C)C(=O)N1C [DP-546] ([Sar]LT[Sar][NEtPhe]A[NMeF][NMeL][NMeI][NMeL]D-Piperidide; lactam N-11)	41	34		
CC(C)C[C@@H]1NC(=O)[C@H](CC(C)C)NC(=O)[C@H](C)N(C)C(=O)C[C@@H](C(=O)N2CCCCC2)NC(=O)[C@H](C(C)C)N(C)C(=O)[C@H](CC(C)C)NC(=O)[C@H](Cc2ccccc2)NC(=O)[C@H]([C@@H](C)O)NC(=O)CN(C)C(=O)[C@H](CC(C)C)NC(=O)C(C)(C)NC1=O [DP-560] ([NMeA]LL[Aib]L[Sar]TFL[NMeV]D-Piperidide; lactam N-11)	26	28		
CC(C)C[C@@H]1NC(=O)[C@H](CC(C)C)NC(=O)[C@H](C)N(C)C(=O)C[C@@H](C(=O)N2CCCCC2)NC(=O)[C@H](C(C)C)N(C)C(=O)[C@H](CC(C)C)NC(=O)[C@H](Cc2ccccc2)NC(=O)[C@H]([C@@H](C)O)NC(=O)CN(C)C(=O)[C@H](CC(C)C)NC(=O)[C@H](c2ccccc2)NC1=O [DP-561] ([NMeA]LL[Phg]L[Sar]TFL[NMeV]D-Piperidide; lactam N-11)	24	48		
